Reference: article PMC10518257 (Nature Cancer, 2023)
“And” between values parts separate entries of the source, which are not always exact repeats. Equal entries are not always repeated. Where two headings read alike, the source gives them in different places.

Columns and labels:
in vivo = details: male, BALB/c, mouse, in vivo, po, 50 mg/kg
[1] = target: T1, panel of 255 (vepafestinib) or 256 (all other inhibitors) recombinant kinases (Homo sapiens, UniProt Q15759); experiment: Kinase selectivity profiling at a single concentration (Carna Biosciences); assay type: biochemical; details: 23 nM
T1 construct: purchased Carna Biosciences

[2] = target: T2, panel of 255 (vepafestinib) or 256 (all other inhibitors) recombinant kinases (Homo sapiens, UniProt Q9P286); experiment: as above; assay type: biochemical; details: 23 nM
T2 construct: purchased Carna Biosciences

[3] = target: T3, panel of 255 (vepafestinib) or 256 (all other inhibitors) recombinant kinases (Homo sapiens, UniProt Q9NQU5); experiment: as above; assay type: biochemical; details: 23 nM
T3 construct: purchased Carna Biosciences

[4] = target: T4, panel of 255 (vepafestinib) or 256 (all other inhibitors) recombinant kinases (Homo sapiens, UniProt Q7KZI7); experiment: as above; assay type: biochemical; details: 23 nM
T4 construct: purchased Carna Biosciences

[5] = target: T5, panel of 255 (vepafestinib) or 256 (all other inhibitors) recombinant kinases (Homo sapiens, UniProt P31749); experiment: as above; assay type: biochemical; details: 23 nM
T5 construct: purchased Carna Biosciences

[6] = tested on: RET^G810R phosphorylation in Ba/F3 KIF5B–RET^G810R allograft tumors; experiment: Western blotting of tumors 1 h after dosing (target engagement); assay type: in vivo, mice; details: 10 mg per kg and 30 mg per kg
[7] = Pharmacokinetic analysis of vepafestinib in rats (microdialysis PFC, CSF, plasma); assay type: in vivo, male Han Wistar rats

T1 sequence (Q15759 whole entry): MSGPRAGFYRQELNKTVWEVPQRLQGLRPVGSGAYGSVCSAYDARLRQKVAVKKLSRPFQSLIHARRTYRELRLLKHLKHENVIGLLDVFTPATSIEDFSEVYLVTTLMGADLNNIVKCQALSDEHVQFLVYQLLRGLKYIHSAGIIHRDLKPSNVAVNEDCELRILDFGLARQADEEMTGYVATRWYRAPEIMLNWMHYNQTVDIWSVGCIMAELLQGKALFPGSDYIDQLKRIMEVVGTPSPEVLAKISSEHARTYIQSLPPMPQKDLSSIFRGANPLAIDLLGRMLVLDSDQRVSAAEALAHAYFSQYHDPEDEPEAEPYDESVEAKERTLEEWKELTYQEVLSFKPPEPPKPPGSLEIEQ
T4 sequence (Q7KZI7 whole entry): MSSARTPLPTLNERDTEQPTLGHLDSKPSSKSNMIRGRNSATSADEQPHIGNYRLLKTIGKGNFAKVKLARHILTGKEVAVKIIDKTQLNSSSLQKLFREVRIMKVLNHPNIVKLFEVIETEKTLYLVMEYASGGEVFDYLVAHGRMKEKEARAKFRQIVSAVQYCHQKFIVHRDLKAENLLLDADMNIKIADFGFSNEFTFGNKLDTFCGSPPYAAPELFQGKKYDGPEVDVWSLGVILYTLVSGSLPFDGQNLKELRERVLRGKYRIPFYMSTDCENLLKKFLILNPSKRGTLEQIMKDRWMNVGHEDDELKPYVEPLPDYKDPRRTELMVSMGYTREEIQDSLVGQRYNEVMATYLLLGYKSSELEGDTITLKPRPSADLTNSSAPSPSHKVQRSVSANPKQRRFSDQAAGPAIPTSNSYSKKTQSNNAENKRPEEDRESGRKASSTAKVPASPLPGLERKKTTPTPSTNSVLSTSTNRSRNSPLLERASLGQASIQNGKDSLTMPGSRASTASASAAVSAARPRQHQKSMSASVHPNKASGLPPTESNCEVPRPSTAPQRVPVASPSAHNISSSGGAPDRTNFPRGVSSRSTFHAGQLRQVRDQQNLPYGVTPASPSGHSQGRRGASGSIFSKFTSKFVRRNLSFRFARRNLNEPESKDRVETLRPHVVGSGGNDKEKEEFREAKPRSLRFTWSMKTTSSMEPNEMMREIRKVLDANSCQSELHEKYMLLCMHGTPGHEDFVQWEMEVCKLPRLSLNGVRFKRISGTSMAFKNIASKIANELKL
T3 sequence (Q9NQU5 whole entry): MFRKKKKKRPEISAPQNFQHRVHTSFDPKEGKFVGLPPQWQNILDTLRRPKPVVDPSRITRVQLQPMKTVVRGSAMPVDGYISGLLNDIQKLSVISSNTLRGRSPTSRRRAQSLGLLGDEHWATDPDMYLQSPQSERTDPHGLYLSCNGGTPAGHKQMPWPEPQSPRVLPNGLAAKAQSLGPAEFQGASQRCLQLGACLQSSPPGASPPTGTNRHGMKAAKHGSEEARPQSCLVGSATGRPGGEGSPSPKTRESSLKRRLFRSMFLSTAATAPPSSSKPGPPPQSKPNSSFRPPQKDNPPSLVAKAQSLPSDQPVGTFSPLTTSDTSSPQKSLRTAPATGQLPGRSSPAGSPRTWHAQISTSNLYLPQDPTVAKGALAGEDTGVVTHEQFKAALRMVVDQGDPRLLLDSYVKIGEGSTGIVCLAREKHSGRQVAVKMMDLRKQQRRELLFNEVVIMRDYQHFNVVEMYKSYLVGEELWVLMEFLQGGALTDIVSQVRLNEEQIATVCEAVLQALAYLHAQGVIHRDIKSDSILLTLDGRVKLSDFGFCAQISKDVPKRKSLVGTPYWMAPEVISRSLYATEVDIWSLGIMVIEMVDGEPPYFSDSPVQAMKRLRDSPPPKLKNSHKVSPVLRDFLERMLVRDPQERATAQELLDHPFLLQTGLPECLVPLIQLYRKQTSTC
T2 sequence (Q9P286 whole entry): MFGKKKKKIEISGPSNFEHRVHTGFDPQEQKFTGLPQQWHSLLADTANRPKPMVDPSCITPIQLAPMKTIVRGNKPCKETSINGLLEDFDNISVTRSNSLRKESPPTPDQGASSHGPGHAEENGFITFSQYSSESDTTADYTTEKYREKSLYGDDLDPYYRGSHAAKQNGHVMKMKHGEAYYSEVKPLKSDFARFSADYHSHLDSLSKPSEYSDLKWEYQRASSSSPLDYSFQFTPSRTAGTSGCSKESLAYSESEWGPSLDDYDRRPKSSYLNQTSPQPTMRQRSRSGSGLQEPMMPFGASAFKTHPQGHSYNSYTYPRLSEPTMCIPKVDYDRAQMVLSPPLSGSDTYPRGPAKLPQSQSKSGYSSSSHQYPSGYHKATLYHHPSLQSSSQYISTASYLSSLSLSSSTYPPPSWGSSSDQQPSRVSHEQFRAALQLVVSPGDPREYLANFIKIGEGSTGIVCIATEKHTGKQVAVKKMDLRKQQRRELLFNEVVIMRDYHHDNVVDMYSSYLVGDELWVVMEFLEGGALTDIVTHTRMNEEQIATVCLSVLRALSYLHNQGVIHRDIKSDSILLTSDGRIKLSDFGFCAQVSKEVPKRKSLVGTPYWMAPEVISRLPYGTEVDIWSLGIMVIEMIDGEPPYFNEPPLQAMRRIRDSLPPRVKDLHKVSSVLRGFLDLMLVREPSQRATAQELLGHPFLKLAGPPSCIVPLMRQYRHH
T5 sequence (P31749 whole entry): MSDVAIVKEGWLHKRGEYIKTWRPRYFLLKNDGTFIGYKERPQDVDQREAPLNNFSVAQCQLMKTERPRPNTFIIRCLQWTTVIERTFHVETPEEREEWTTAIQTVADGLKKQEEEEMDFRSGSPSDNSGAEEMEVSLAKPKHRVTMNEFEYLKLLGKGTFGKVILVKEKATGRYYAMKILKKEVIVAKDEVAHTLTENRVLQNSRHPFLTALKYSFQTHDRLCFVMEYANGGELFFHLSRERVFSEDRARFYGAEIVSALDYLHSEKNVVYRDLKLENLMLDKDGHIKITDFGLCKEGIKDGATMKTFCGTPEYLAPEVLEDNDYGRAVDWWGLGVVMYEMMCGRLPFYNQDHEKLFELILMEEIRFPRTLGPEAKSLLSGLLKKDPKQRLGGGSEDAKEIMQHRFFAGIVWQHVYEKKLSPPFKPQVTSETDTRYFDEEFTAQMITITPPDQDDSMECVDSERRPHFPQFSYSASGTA

SMILES: COCc1ccc(NC(=O)c2c(C#CCN3CCOCC3)n(C3(C)CC3)c3ncnc(N)c23)cc1 [Vepafestinib, 4-amino-N-[4-(methoxymethyl)phenyl]-7-(1-methylcyclopropyl)-6-[3-(morpholin-4-yl)prop-1-yn-1-yl]-7H-pyrrolo[2,3-d]pyrimidine-5-carboxamide]
- Kp (in vivo): 1.8
- Kp uu (in vivo): 1.3
- % Inhibiton p38β [1]: 7%
- % Inhibiton PAK5 [2]: 10.8%
- % Inhibiton PAK6 [3]: 7.4%
- % Inhibiton MARK2 [4]: 14.1%
- % Inhibiton AKT1 [5]: 7.9%
- inhibition of RET^G810R phosphorylation in tumors [6]: completely inhibited
- Concentration in Rats, Plasma (free fraction) ([7]; 3 mg/kg, 30 min, individual rats): 411 nM and 290 nM and 384 nM and 193 nM
- Concentration in Rats, Plasma (free fraction) ([7]; 3 mg/kg, 60 min, individual rats): 248 nM and 212 nM and 391 nM and 168 nM
- concentration at 480 min ([7]; 3 mg/kg, 60 min, individual rats, read-out: Concentration in Rats, Cerebrospinal fluid): 109 nM
- concentration at 120 min ([7]; 3 mg/kg, 60 min, individual rats, read-out: Concentration in Rats, Plasma (total)): 1620 nM and 1390 nM and 2560 nM and 1100 nM
- Concentration in Rats, Plasma (free fraction) ([7]; 3 mg/kg, 120 min, individual rats): 129 nM and 143 nM and 163 nM and 115 nM
- Concentration in Rats, Plasma (free fraction) ([7]; 3 mg/kg, 180 min, individual rats): 68 nM and 120 nM and 97.8 nM and 63 nM
- Concentration in Rats, Plasma (free fraction) ([7]; 3 mg/kg, 300 min, individual rats): 17.3 nM and 28.1 nM and 50.7 nM and 32.7 nM
- Concentration in Rats, Plasma (free fraction) ([7]; 3 mg/kg, 360 min, individual rats): 8.57 nM and 13.7 nM and 36.5 nM
- Concentration in Rats, Plasma (free fraction) ([7]; 3 mg/kg, 480 min, individual rats): 24.3 nM
- Concentration in Rats, Plasma (free fraction) ([7]; 10 mg/kg, 30 min, individual rats): 1323 nM and 1543 nM and 1071 nM and 1204 nM
- Concentration in Rats, Plasma (free fraction) ([7]; 10 mg/kg, 60 min, individual rats): 1016 nM and 1083 nM and 660 nM and 921 nM
- Concentration in Rats, Plasma (free fraction) ([7]; 10 mg/kg, 120 min, individual rats): 503 nM and 680 nM and 665 nM and 714 nM
- Concentration in Rats, Plasma (free fraction) ([7]; 10 mg/kg, 180 min, individual rats): 272 nM and 513 nM and 529 nM and 374 nM
- Concentration in Rats, Plasma (free fraction) ([7]; 10 mg/kg, 240 min, individual rats): 133 nM and 237 nM and 243 nM and 244 nM
- Concentration in Rats, Plasma (free fraction) ([7]; 10 mg/kg, 300 min, individual rats): 53.6 nM and 90.5 nM and 129 nM and 102 nM
- Concentration in Rats, Plasma (free fraction) ([7]; 10 mg/kg, 360 min, individual rats): 30.4 nM and 53.8 nM and 63.3 nM and 53.6 nM
- Concentration in Rats, Plasma (free fraction) ([7]; 10 mg/kg, 480 min, individual rats): 15.6 nM and 25.5 nM and 17.7 nM
- Concentration in Rats, Plasma (free fraction) ([7]; 50 mg/kg, 30 min, individual rats): 2310 nM and 2399 nM and 2002 nM and 1803 nM
- Concentration in Rats, Plasma (free fraction) ([7]; 50 mg/kg, 60 min, individual rats): 1589 nM and 1818 nM and 1742 nM and 1803 nM
- Concentration in Rats, Plasma (free fraction) ([7]; 50 mg/kg, 120 min, individual rats): 1415 nM and 2506 nM and 1273 nM and 2017 nM
- Concentration in Rats, Plasma (free fraction) ([7]; 50 mg/kg, 180 min, individual rats): 947 nM and 2200 nM and 964 nM and 1305 nM
- Concentration in Rats, Plasma (free fraction) ([7]; 50 mg/kg, 240 min, individual rats): 591 nM and 2093 nM and 1166 nM and 1108 nM
- Concentration in Rats, Plasma (free fraction) ([7]; 50 mg/kg, 300 min, individual rats): 740 nM and 1435 nM and 817 nM and 694 nM
- Concentration in Rats, Plasma (free fraction) ([7]; 50 mg/kg, 360 min, individual rats): 891 nM and 1181 nM and 821 nM and 400 nM
- Concentration in Rats, Plasma (free fraction) ([7]; 50 mg/kg, 480 min, individual rats): 20.5 nM and 680 nM and 743 nM and 651 nM
- concentration at 120 min ([7]; male, Han Wistar, rat, cerebrospinal fluid, oral, 3 mg/kg, 120 min, individual rats, read-out: Concentration in Rats, Cerebrospinal fluid): 67.4 nM
- concentration at 240 min ([7]; male, Han Wistar, rat, cerebrospinal fluid, oral, 3 mg/kg, 240 min, individual rats, read-out: Concentration in Rats, Cerebrospinal fluid): 28.8 nM
- concentration at 480 min ([7]; male, Han Wistar, rat, cerebrospinal fluid, oral, 3 mg/kg, 480 min, individual rats, read-out: Concentration in Rats, Cerebrospinal fluid): 8.78 nM
- concentration at 30 min ([7]; male, Han Wistar, rat, cerebrospinal fluid, oral, 10 mg/kg, 30 min, individual rats, read-out: Concentration in Rats, Cerebrospinal fluid): 961 nM
- concentration at 120 min ([7]; male, Han Wistar, rat, cerebrospinal fluid, oral, 10 mg/kg, 120 min, individual rats, read-out: Concentration in Rats, Cerebrospinal fluid): 585 nM
- concentration at 480 min ([7]; male, Han Wistar, rat, cerebrospinal fluid, oral, 50 mg/kg, rats, 50 mg/kg, 480 min, individual animals, read-out: Concentration in Cerebrospinal fluid): 430 nM
- concentration at 480 min ([7]; male, Han Wistar, rat, cerebrospinal fluid, oral, 50 mg/kg, 480 min, individual rats, read-out: Concentration in Rats, Cerebrospinal fluid): 486 nM
- concentration at 120 min ([7]; male, Han Wistar, rat, plasma (total), oral, 3 mg/kg, 120 min, individual rats, read-out: Concentration in Rats, Plasma (total)): 845 nM
- concentration at 180 min ([7]; male, Han Wistar, rat, plasma (total), oral, 3 mg/kg, 180 min, individual rats, read-out: Concentration in Rats, Plasma (total)): 445 nM
- concentration at 480 min ([7]; male, Han Wistar, rat, plasma (total), oral, 3 mg/kg, 480 min, individual rats, read-out: Concentration in Rats, Plasma (total)): 159 nM
- concentration at 30 min ([7]; male, Han Wistar, rat, plasma (total), oral, 10 mg/kg, 30 min, individual rats, read-out: Concentration in Rats, Plasma (total)): 8660 nM
- concentration at 60 min ([7]; male, Han Wistar, rat, plasma (total), oral, 10 mg/kg, 60 min, individual rats, read-out: Concentration in Rats, Plasma (total)): 6650 nM
- concentration at 120 min ([7]; male, Han Wistar, rat, plasma (total), oral, 10 mg/kg, 120 min, individual rats, read-out: Concentration in Rats, Plasma (total)): 3290 nM
